Consider five compounds from PMC6829517 (International Journal of Molecular Sciences, 2019).

Data set [1] concerns Bacterial biofilms. The data set is described as follows: Minimal biofilm eradication concentration (MBEC). The data set is classed as cell-based. As to conditions: in all cases; peg-lid biofilms, MHBCA, 24 h exposure at 37 °C, OD 620 nm, triplicate. Here is the method: MBEC was determined as described by Moskowitz et al.. Bacterial biofilms were formed by immersing the pegs of a modified polystyrene microtiter lid into 96-well microtiter plates, each containing 200 µL of Muller-Hinton broth cation adjusted (MHBCA), followed by incubation at 37 °C for 24 h. Pegs were then gently rinsed in a 0.9% w/v NaCl solution and biofilms were exposed to a range of concentrations of antimicrobials for 24 h at 37 °C. Pegs were again rinsed with a 0.9% w/v NaCl solution and biofilms were removed by 10 min sonication. Recovered bacteria were incubated for 24 h at 37 °C. Optical densities at 620 nm were measured in order to determine MBEC values, defined as the lowest concentration of antimicrobial that prevented bacterial regrowth from the treated biofilm. All experiments were performed in triplicate.

Data set [2] concerns Escherichia coli MDR 239910. The data set is classed as cell-based. As to conditions: MDR 239910, 24 h. Here is the method: (§1) All experiments were performed in triplicate.
For data set [3], the system named is Salmonella typhimurium SY5015. The data set is classed as cell-based. As to conditions: murium SY5015, 24 h. Here is the method:
as §1

Data set [4] deals with Escherichia coli MDR 208691. It is filed as cell-based. As to conditions: MDR 208691, 24 h. Here is the method:
as §1

In data set [5] the test system is Escherichia coli MDR 39255. It is filed as cell-based. The note with it: MDR 39255, 24 h. The method, then: as §1
Data set [6] deals with Salmonella enterica ATCC 13076. As to conditions: broth microdilution, MHB, 37 °C, 24 h, visual turbidity, triplicate. Here is the method: (§2) MIC values were determined by the broth microdilution method and interpreted following the guidelines of the Clinical & Laboratory Standards Institute (CLSI) and European Committee on Antimicrobial Susceptibility Testing (EUCAST). The different strains were grown in Mueller-Hinton broth (MHB) overnight at 37 °C with shaking at 200 rpm. The bacterial cultures were then adjusted to OD625nm of 0.08–0.1 and diluted 1:100 in fresh MHB medium. Next, 5 µL of each diluted suspension was added to 96-well plates previously filled with MHB and serially diluted peptides. […] All experiments were performed in triplicate.

In data set [7] the test system is Salmonella enterica ATCC 49214. The note with it: broth microdilution, MHB, 37 °C, 24 h, visual turbidity, triplicate. The method, then:
as §2

The target in data set [8] is T1, thermolysin (Bacillus thermoproteolyticus, UniProt P00800).
T1 construct: purchased Sigma-Aldrich
Description: Thermolysin stability assay. It is filed as in vitro ADME. The note with it: thermolysin 1 mg/mL, 50 mM Tris pH 8, 0.5 mM CaCl2, 30 min at 70 °C, LC-MS; loss of 137 Da (Val11-Gly12). Here is the method:
Materials and reagents. Methanol was purchased from Scharlau, while acetonitrile was obtained […]
while carboxypeptidase Y was purchased from Alfa Aesar. E. coli BL21 (DE3), which was used for heterologous expression, was purchased from Invitrogen. Bacterial strains were isolated from […]
Hinton Broth (MHB) was obtained from Scharlau (Spain).
10 µL of 0.5 M NaOH was added.
LC-MS. […] For the isolation and […]
in 400 µL of H 2O-ACN (1:1). […]
was stirred overnight at 40 °C.
MES, 1 mM CaCl 2 at pH 6.75).
The reaction was quenched by
Pepsin. […] 40 µL of pepsin
Figure S6. RP-HPLC chromatograms and ESI + spectra after 30 min of thermolysin treatment at 70 °C in 50 mM TRIS pH 8, 0.5 mM CaCl 2 buffer. a) New compound, b) native MccJ25 and c) co-injection of the two peptides after the thermolysin cleavage. Conditions: XBridge C18 2.5 µm (4.6 mm x 75 mm) reversed-phase analytical column; linear gradient from 30% to 60% of ACN over 8 […]

Data set [9] concerns the target pepsin (Sus scrofa, UniProt P00791). As to conditions: for Hydrolysis by pepsin at 37 °C: pepsin 1 mg/mL in HCl 0.01 M, pH 2, 37 °C, several hours, LC-MS; for Cleavage by pepsin at 50 °C: pH 2, 50 °C, 19 h, RP-HPLC. The text has this:
Materials and reagents. Methanol was purchased from Scharlau, while acetonitrile was obtained from SDS. NaOH, 2,2,2-trifluoroethanol, pepsin, thermolysin were obtained from Sigma-Aldrich, while carboxypeptidase Y was purchased from Alfa Aesar. E. coli BL21 (DE3), which was used for heterologous expression, was purchased from Invitrogen. Bacterial strains were isolated from clinical specimens in the Microbiology Service of the Hospital Universitari de Bellvitge (Spain).
Collistin sulfate was supplied by Zhejiang Shenghua Biok Biology Co. LTD, China. Mueller-Hinton Broth (MHB) was obtained from Scharlau (Spain). […]
Then, 30 µL of NaOH 0.5 M (pH 12) was added, and the mixture was stirred overnight at 40 °C. […]
Pepsin. Purified peptide (20 µg) was dissolved in 150 µL HCl 0.01 M (pH 2). 40 µL of pepsin solution in HCl 0.01 M (1 mg/mL) was added to the peptide solution and incubated for 2-20 h at […]

For data set [10] the following is noted: cited from earlier work. Here is the method:
(§3) Moreover, it is stable to highly denaturing conditions, such as 8 M urea and temperatures above 100 °C [6].

In data set [11] the test system is chymotrypsin, trypsin and pepsin. As to conditions: cited from earlier work. Here is the method: as §3
The test system of data set [12] is Escherichia coli MDR 246415. The data set is classed as cell-based. As to conditions: MDR 246415, 24 h. The method, then:
as §1

Data set [13] has as its system eight Gram-negative strains. The data set is described as follows: MIC, broth microdilution. It is filed as cell-based. As to conditions: all eight strains tested; summary of Table 1. Here is the method: as §1
For data set [14], the system named is thermolysin. The data set is described as follows: thermolysin in 50 mM TRIS pH 8, 0.5 mM CaCl2 buffer. The note with it: 70 °C, up to 30 min.
Data set [15] concerns pepsin. The data set is described as follows: pepsin solution in HCl 0.01 M (pH 2). The note with it: 37 °C, up to 2-20 h.
The subject of data set [16] is trypsin. As to conditions: cited from earlier work.
The nature of data set [17]: 0.5 M NaOH in H2O-ACN (1:1). The note with it: 40 °C, up to 48 h.
For data set [18], the system named is pepsin. The data set is described as follows: pepsin, temperature increased to 50 °C. As to conditions: up to 19 h.
In data set [19] the test system is carboxypeptidase Y. The data set is described as follows: carboxypeptidase Y solution in MES buffer (50 mM MES, 1 mM CaCl2 at pH 6.75). As to conditions: 25 °C, up to 4 h.
The subject of data set [20] is chymotrypsin. As to conditions: cited from earlier work.
Data set [21] has as its system pepsin. As to conditions: cited from earlier work.

In brackets after ≈: the same amount, converted by molar mass. Entries after “also recorded” stand apart in the source; their conditions may differ. Like-named read-outs stand apart in the source and are kept apart here. Positions of bridges follow the written chain, without caps; N, C: chain ends. Non-standard residues stand in square brackets, D forms with d. Residues, ends and D or L forms follow the SMILES beside them.

Chain of pepsin (Sus scrofa, UniProt P00791) (P00791 60-385): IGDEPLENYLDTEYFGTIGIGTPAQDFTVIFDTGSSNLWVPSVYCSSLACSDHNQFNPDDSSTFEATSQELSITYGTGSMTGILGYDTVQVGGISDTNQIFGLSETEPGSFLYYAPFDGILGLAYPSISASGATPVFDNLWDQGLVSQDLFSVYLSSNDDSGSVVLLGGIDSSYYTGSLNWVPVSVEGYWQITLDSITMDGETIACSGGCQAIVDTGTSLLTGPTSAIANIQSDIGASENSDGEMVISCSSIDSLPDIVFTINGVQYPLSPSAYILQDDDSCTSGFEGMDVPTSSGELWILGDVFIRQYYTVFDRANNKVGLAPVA
T1 sequence (P00800 233-548): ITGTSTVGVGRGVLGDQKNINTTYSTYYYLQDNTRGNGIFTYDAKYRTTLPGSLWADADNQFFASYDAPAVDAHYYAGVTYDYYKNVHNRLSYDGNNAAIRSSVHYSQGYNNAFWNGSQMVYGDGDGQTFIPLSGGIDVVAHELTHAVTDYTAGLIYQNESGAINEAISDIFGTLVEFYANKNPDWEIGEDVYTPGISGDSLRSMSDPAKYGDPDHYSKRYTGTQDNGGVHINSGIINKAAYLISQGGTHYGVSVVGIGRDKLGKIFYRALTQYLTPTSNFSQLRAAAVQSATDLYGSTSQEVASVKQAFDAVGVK

Regarding `CC[C@H](C)[C@H](NC(=O)CNC(=O)[C@@H](NC(=O)[C@H](Cc1ccccc1)NC(=O)[C@H](Cc1ccc(O)cc1)NC(=O)[C@@H]1CCC(=O)NCC(=O)NCC(=O)N[C@@H](C)C(=O)NCC(=O)N[C@@H](Cc2c[nH]cn2)C(=O)N[C@@H](C(C)C)C(=O)N2CCC[C@H]2C(=O)N1)C(C)C)C(=O)NCC(=O)N[C@H](C(=O)N1CCC[C@H]1C(=O)N[C@H](C(=O)N[C@@H](CO)C(=O)N[C@@H](Cc1ccccc1)C(=O)N[C@@H](Cc1ccc(O)cc1)C(=O)NCC(=O)O)[C@@H](C)CC)[C@@H](C)O` [Native MccJ25, Microcin J25] (GGAGHVPEYFVGIGTPISFYG-OH; lactam N-8), in [1], the “Minimal biofilm eradication concentration (MBEC)” value was “greater than 128 μg/mL”. Also, the “Minimum inhibitory concentration (MIC)” value was more than 128 µg/mL in [2]; more than 128 µg/mL in [3]; more than 128 µg/mL in [4]; 0.5 µg/mL (≈ 0.237 µM) in data set [5]; less than 0.0625 µg/mL in [6]; 0.8 µg/mL (≈ 0.38 µM) in data set [7].
In the case of `CC[C@H](C)[C@H](NC(=O)CNC(=O)[C@@H](NC(=O)[C@H](Cc1ccccc1)NC(=O)[C@H](Cc1ccc(O)cc1)NC(=O)[C@@H]1CCC(=O)NCC(=O)NCC(=O)N[C@@H](C)C(=O)NCC(=O)N[C@@H](Cc2cnc[nH]2)C(=O)N[C@@H](C(C)C)C(=O)N2CCC[C@H]2C(=O)N1)C(C)C)C(=O)NCC(=O)N[C@H](C(=O)N1CCC[C@H]1C(=O)N[C@H](C(=O)N[C@@H](CO)C(=O)N[C@@H](Cc1ccccc1)C(=O)N[C@@H](Cc1ccc(O)cc1)C(=O)NCC(=O)O)[C@@H](C)CC)[C@@H](C)O` [Native MccJ25, Microcin J25] (GGAGHVPEYFVGIGTPISFYG-OH; lactam N-8), in [8], the “Outcome of thermolysin treatment” value is “double cleavage between Phe10-Val11 and Gly12-Ile13”. In data set [9], the “Hydrolysis by pepsin at 37 °C” value was “no hydrolysis was observed” and the “Cleavage by pepsin at 50 °C” value is “no cleavage was detected”. Also, the “Stability to highly denaturing conditions” value in data set [10] was “stable”. For the same compound, in [11], the “Thermal and proteolytic stability against several proteases” value was “high thermal and proteolytic stability”.
Regarding `CC[C@H](C)[C@H](NC(=O)CNC(=O)[C@H](NC(=O)[C@H](Cc1ccccc1)NC(=O)[C@H](Cc1ccc(O)cc1)NC(=O)[C@@H]1CCC(=O)NCC(=O)NCC(=O)N[C@@H](C)C(=O)NCC(=O)N[C@@H](Cc2c[nH]cn2)C(=O)N[C@@H](C(C)C)C(=O)N2CCC[C@H]2C(=O)N1)C(C)C)C(=O)NCC(=O)N[C@H](C(=O)N1CCC[C@H]1C(=O)N[C@H](C(=O)N[C@@H](CO)C(=O)N[C@@H](Cc1ccccc1)C(=O)N[C@@H](Cc1ccc(O)cc1)C(=O)NCC(=O)O)[C@@H](C)CC)[C@@H](C)O` [New Compound] (GGAGHVPEYF[dV]GIGTPISFYG-OH; lactam N-8), the “Minimal biofilm eradication concentration (MBEC)” value in [1] was “greater than 128 μg/mL”. For the same compound, in [8], the “Outcome of thermolysin treatment” value was “double cleavage between Phe10-Val11 and Gly12-Ile13”. Moreover, the “Minimum inhibitory concentration (MIC)” value in data set [2] is on record as more than 128 µg/mL; in data set [3] it was more than 128 µg/mL; in data set [12], more than 128 µg/mL; in data set [4], more than 128 µg/mL; in [5], more than 256 µg/mL. In addition, the “Hydrolysis by pepsin at 37 °C” value in [9] was “no hydrolysis was observed”. In [9], the “Cleavage by pepsin at 50 °C” value is “no cleavage was detected”. Besides, the “MIC values in all cases” value in data set [13] is on record as “higher than 128 μg/mL”.
On to GGAGHVPEYFVGIGTPISFYG [MccJ25], for which the cleaved bond result in [14] is given as “Gly12-Ile13; also recorded: Phe10-Val11”; in data set [19] it was “Phe10-Val11; also recorded: Val11-Gly12”. In addition, the not cleaved entry in data set [15] is “no hydrolysis was observed, even after several hours at pH 2 at 37 °C”; in [16], “high thermal and proteolytic stability”; in [18], “no cleavage was detected after 19 h”; in [20], “high thermal and proteolytic stability”; in data set [21] it was “high thermal and proteolytic stability”. Also, the fragment found entry in data set [17] is “new compound (epimerization of Val11)”.
Regarding GGAGHVPEYFVGIGTPISFYG [new compound], the cleaved bond entry in data set [14] is reported as “Phe10-Val11; also recorded: Gly12-Ile13”; in [19] it was “Phe10-Val11; also recorded: Val11-Gly12”. The not cleaved entry in data set [15] was “no hydrolysis was observed, even after several hours at pH 2 at 37 °C”; in data set [18] it was “no cleavage was detected after 19 h”.
